Earlier results on three compounds are cited in patent publication US10954430B2, “Low-toxicity, low-flammability, environmentally-safe, friction reducer fluid for hydraulic fracturing” (priority 2012, dated 2021).

The subject of series [1] is Pimephales promelas (fathead minnow).
The test system of series [2] is rat.
The test system of series [3] is daphnia magna (water flea).
Series [4] relates to most sensitive species. As to conditions: eco-toxicity.
The test system of series [5] is animal. As to conditions: in vivo.

Values after ≈ are worked out from the molar mass of the structure shown. Where two headings read alike, the source gives them in different places.

Consider `OCCCO` [propanediol], for which the aquatic toxicity profile in series [1] (Pimephales promelas (fathead minnow)) is listed as > 9,270 mg/L; in series [3] (daphnia magna (water flea)), over 7.417 mg/L. The LD50 entry in series [2] (oral) is recorded as “over 15,000 mg/kg”.

Turning to `CC1COC(=O)O1` (stereo not drawn) [Propylene carbonate, propylene carbonate], the “LD50 for oral toxicity” value in series [2] (oral) is over 5000 mg/kg.

Turning to `CC(O)COc1ccccc1` (stereo not drawn) [Dowanol PPH, propylene glycol phenyl ether], the “LC50 for most sensitive species” value in series [4] is over 100 µg/mL. For the same compound, the LC50 is 280 µg/mL (≈ 1840 µM) in series [1] (Pimephales promelas) and 370 µg/mL (≈ 2430 µM) in series [3] (Daphnia magna). In series [2] (in vivo), the LD50 was > 2,000 mg/kg. Besides, the animal toxicity result in series [5] is recorded as “does not have significant animal toxicity”.
